# Source: US12544375B2, “Small molecule therapeutic for parkinson's disease paired with a biomarker of therapeutic activity” (The Board of Trustees of the Leland Stanford Junior …, priority 2019, dated 2026)
# Target: T1, Myc-Miro1-7A (Homo sapiens, UniProt Q8IXI2, D530A/K427A/K454A/K528A/N428A/Q446A/S432A)
# T1 construct: expressed in transfected cells; host or cells: human skin fibroblasts Healthy-1 and PD-2 (Lipofectamine 2000)
# Assay: Drug-resistant mutant Myc-Miro1-7A expressed in fibroblasts, immunostaining
# Assay type: cell-based
# Conditions: expressed in PD-2 fibroblasts, CCCP treatment
# Description: FIG. 2A-FIG. 2F. Miro1 Reducer Eliminates the Miro1 Defect in PD Fibroblasts. (FIG. 2A) Chemical properties of Miro1 Reducer. (FIG. 2B) Wild-type flies (w^1118) were fed with DMSO alone (0 μM Miro1 Reducer) or Miro1 Reducer in DMSO at 250 μM for 7 days, and lysed and blotted as indicated. The band intensities are normalized to those of Tubulin from the same blots. n=4. (FIG. 2C-FIG. 2E) Fibroblasts were treated, lysed, and blotted as indicated. (FIG. 2C) Band intensities are normalized to those of GAPDH from the same blots and compared to “Healthy-1, no treatment” except otherwise indicated. n=4. (FIG. 2D) Band intensities are normalized to those of ATP5β from the same blots and expressed as a percentage of the mean of “0 μM Miro1 Reducer with CCCP”. Mean±S.E.M is shown. n=3. (FIG. 2E) Band intensities are normalized to those of GAPDH from the same blots and compared to “Healthy-1, no CCCP, no MG132” except otherwise indicated. n=4. (FIG. 2F) Healthy-1 and PD-2 fibroblasts were transfected as indicated, and immunostained with anti-Myc (Miro1, green) and stained with Dapi (blue). The Miro1 intensity is normalized to that of mito-dsRed from the same cell and quantified across 37-62 cells from 5 fields each transfection, 3 independent transfections. Scale bars: 50 μm. For (FIG. 2C-FIG. 2F), both CCCP and Miro1 Reducer were dissolved in DMSO. […]
# T1 sequence (Q8IXI2 whole entry K427A/N428A/S432A/Q446A/K454A/K528A/D530A): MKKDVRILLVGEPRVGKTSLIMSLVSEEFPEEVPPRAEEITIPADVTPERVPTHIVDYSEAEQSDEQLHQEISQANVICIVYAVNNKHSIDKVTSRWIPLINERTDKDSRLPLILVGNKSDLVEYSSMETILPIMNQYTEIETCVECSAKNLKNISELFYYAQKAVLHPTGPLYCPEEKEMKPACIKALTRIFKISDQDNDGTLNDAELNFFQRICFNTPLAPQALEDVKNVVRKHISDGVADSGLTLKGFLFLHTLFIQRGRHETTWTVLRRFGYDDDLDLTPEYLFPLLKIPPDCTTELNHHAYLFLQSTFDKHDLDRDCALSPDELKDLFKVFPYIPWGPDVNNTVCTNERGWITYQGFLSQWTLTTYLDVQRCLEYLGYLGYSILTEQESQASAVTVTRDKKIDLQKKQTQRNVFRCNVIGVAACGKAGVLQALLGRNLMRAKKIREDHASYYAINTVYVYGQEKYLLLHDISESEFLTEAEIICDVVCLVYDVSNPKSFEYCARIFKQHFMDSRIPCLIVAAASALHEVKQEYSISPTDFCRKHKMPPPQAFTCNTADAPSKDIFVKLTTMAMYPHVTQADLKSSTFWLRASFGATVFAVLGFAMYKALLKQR
structure (smiles),measurement,value
O=C(Nc1ccc(Nc2cc(-n3ccnc3)ncn2)cc1)Nc1cccc(F)c1 [Miro1 Reducer],response of mutant Myc-Miro1-7A to compound,failed to respond
